Measurements reported in patent US20250275910A1, “Cosmetic application of viniferine” (Tomcat International Limited, priority 2021, published 2025).

Assays:
[1] = test system: human epidermal melanocytes (HEM); experiment: Melanin content test on human epidermal melanocytes exposed to blue light; type: cell-based; details: total 120 J/cm^2
Experimental: In the following experimental part, the preventive effect of ε-viniferine (trans-ε-viniferine) at different concentrations, on the damage caused by blue light at two wavelengths (412 nm, characteristic of solar blue light and 450 nm, characteristic of blue light from screens) was evaluated by means of a test for determining the melanin content of cells treated with a composition of the invention. In order to determine the maximum concentrations to be tested, the toxicity of different concentrations of the compositions tested was first evaluated via the MTT test, a live cell counting test involving the MTT tetrazolium salt as a reagent and well known to the professional.
The tests were carried out on human epidermal melanocytes (HEM), which are cells that produce melanin and are therefore responsible for skin pigmentation. […]
The HEM cells were cultured at 37° C., in a 5% CO2 atmosphere and treated with a determined concentration of the composition C1 or the composition C2. […]
(§1) The coloring intensity determined by the optical density measured at 405 nm is directly correlated to the melanin content.
(§2) The melanin content is calculated by relating the absorbance value to that of the negative control.
(§3) The percentage variation in melanin content compared to the blank test or the negative control is calculated according to the following equation: […]

[2] = test system: human skin explants; experiment: Melanin content test on human skin explants exposed to blue light; type: cell-based; details: human skin explants treated with C11 or C12, blue light at 412 nm or 450 nm, total 120 J/cm^2
Experimental: The tests were carried out on human skin explants obtained from plastic surgery. The biopsies are divided into explants of 8 mm diameter and kept for survival in complete medium. at 37° C. and in an atmosphere of 5% CO2.
The skin explants are exposed to blue light, at 412 nm or 450 nm or kept in the dark (control) for 5 hours per day, for 3 days, representing a total irradiation of 120 J/cm^2. Before each exposure, the explants are treated overnight with the compositions C11 or C12.
24 hours after the last irradiation, the explants are collected and incubated in a 1 M NaOH solution at 80° C. for 3 hours, allowing the melanin to solubilize. […]
as §1, §2, §3

In the case of `Oc1ccc(/C=C/c2cc(O)cc3c2[C@@H](c2cc(O)cc(O)c2)[C@H](c2ccc(O)cc2)O3)cc1` (relative stereo) [ε-viniferine, trans-ε-viniferine], the “production of melanin (optical density at 405 nm)” value ([1]; HEM cells treated 24 h before exposure to blue light at 412 nm or 450 nm, 5 h per day for 3 days, versus untreated irradiated cells (NT)) is reported as “significantly reduce the production of melanin”, the “melanin content relative to culture not exposed to blue light” value ([1]; HEM cells, blue light at 450 nm) is reported as “lower the melanin content to the content of a culture of melanocytes not exposed to blue light” and the “melanin content relative to explant not exposed to blue light” value [2] is reported as “lower the melanin content to the content of an explant not exposed to blue light”.
